Laboratory results: patent US20220041613A1, “TYROSINE KINASE INHIBITOR COMPOSITIONS, METHODS OF MAKING AND METHODS OF USE” (Black Diamond Therapeutics, Inc., priority 2018, published 2022)
“Also recorded” adds a separate entry of the source. Read-outs that look alike come from different tables or passages of the source.

Columns and labels:
[1] = system: covalently-activated EGFR variants (EGFR-Viii, EGFR-Vii, EGFR-Vvi, EGFR-A289V); assay: Western blot under non-reducing conditions: monomeric versus covalently dimerized and phosphorylated EGFR; type: cell-based, Homo sapiens
GBM = settings: cited from earlier work; for clinical benefit in GBM: >30 clinical trials and >1500 patients
[2] = system: BaF3 cells expressing EGFR-Viii, EGFR-Vii or EGFR-A289V; assay: Proliferation of BaF3 cells expressing covalently-activated EGFR; type: cell-based, murine
EGFR WT = target: T1, EGFR WT (Homo sapiens, UniProt P00533); assay: Assay for cell proliferation (CellTiterGlo), Activity for Inhibiting EGFR; type: cell-based; settings: potency code, 3 days drug
T1 construct: endogenous in cells; host or cells: A431 (+H292)
T1 sequence (P00533 25-1210): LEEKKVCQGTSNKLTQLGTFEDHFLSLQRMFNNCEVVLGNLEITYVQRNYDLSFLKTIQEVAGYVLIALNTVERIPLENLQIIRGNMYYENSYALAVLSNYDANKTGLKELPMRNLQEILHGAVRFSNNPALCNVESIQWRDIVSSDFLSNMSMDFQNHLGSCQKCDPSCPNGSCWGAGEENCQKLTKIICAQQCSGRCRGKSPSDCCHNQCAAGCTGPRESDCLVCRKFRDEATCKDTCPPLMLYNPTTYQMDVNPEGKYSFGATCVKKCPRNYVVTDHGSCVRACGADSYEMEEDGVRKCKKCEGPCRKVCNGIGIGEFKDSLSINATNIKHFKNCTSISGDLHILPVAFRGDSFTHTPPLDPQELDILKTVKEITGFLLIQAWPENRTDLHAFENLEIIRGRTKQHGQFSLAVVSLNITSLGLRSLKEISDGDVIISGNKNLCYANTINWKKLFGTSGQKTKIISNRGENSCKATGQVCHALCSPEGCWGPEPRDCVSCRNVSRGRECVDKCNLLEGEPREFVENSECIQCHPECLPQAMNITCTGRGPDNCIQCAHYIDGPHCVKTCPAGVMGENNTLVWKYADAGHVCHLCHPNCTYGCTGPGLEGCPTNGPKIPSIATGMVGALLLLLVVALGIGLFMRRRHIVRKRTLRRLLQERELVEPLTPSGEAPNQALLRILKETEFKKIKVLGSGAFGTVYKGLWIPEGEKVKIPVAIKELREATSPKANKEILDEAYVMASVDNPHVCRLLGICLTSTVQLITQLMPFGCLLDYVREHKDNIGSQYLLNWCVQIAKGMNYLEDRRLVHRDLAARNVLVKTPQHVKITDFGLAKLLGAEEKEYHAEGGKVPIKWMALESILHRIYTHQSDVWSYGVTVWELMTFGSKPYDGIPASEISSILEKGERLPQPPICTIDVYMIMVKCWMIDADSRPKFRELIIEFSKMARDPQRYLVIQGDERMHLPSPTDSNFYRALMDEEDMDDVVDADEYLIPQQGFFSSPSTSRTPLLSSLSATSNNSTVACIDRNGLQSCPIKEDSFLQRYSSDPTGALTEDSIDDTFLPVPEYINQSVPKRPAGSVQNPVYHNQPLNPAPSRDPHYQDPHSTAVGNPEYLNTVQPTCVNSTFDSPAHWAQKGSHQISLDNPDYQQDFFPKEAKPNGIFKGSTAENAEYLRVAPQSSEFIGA

HER2 S310F = target: T2, HER2 S310F (Homo sapiens, UniProt P04626, S310F); assay: Assay for cell proliferation (BaF3 transformants, CellTiterGlo), Activity for Inhibiting HER2; type: cell-based; settings: potency code, 3 days drug
T2 construct: expressed in transfected cells; host or cells: BaF3 (murine pro-B) transformants
T2 sequence (P04626 23-1255 S310F): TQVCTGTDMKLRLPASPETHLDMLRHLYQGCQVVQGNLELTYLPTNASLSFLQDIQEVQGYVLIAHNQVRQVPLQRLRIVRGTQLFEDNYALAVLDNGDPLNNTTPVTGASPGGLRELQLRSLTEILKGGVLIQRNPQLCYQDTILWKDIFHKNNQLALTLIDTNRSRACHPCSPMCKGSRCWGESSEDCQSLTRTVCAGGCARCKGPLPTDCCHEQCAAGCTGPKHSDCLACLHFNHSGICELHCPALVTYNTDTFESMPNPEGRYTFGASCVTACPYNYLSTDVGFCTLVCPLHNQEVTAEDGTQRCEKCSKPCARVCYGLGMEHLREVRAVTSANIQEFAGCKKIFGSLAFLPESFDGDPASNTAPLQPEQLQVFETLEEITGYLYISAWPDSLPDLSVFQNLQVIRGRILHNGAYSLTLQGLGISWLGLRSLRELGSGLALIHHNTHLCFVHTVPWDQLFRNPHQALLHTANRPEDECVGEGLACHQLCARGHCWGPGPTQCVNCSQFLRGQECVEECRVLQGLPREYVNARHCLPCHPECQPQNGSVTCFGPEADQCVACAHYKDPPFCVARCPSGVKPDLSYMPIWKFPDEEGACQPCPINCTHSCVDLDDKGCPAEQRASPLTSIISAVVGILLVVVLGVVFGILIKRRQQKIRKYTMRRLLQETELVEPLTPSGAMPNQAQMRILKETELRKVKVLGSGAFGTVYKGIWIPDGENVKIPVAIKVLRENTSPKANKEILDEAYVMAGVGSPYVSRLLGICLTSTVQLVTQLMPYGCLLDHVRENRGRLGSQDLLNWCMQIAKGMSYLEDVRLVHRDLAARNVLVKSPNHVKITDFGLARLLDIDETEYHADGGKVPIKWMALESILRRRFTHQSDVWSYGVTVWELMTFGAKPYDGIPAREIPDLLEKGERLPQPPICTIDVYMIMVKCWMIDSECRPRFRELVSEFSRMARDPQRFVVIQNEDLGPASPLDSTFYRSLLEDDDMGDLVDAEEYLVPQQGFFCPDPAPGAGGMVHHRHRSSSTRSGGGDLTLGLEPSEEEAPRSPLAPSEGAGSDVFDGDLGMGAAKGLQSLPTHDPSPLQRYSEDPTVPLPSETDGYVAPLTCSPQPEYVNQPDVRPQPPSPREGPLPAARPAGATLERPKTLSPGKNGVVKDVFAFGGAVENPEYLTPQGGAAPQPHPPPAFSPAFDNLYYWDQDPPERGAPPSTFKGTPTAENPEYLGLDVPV

EGFR V3 (EGFR-Viii) = target: T3, EGFR V3 (EGFR-Viii) (Homo sapiens, UniProt P00533, DELINS30-297G); assay: Assay for cell proliferation (BaF3 transformants, CellTiterGlo), Activity for Inhibiting EGFR; type: cell-based; settings: potency code, 3 days drug
T3 construct: expressed in transfected cells; host or cells: BaF3 (murine pro-B), retroviral pMXs-IRES-Blasticidin, selected for IL-3 independence
Procedure: (§1) Retroviral Production: EGFR mutants were subcloned into pMXs-IRES-Blasticidin (RTV-016, Cell Biolabs, San Diego, Calif.). Retroviral expression vector retrovirus was produced by transient transfection of HEK 293T cells with the retroviral EGFR mutant expression vector pMXs-IRES-Blasticidin (RTV-016, Cell Biolabs), pCMV-Gag-Pol vector and pCMV-VSV-G-Envelope vector. HEK 293T/17 cells were plated in 100 mm collagen coated plate (354450, Corning Life Sciences, Tewksbury, Mass.) (4×10^5 per plate) and incubated overnight. The next day, retroviral plasmids (3 μg of EGFR mutant, 1.0 μg of pCMV-Gag-Pol and 0.5 μg pCMV-VSV-G) were mixed in 500 μl of Optimem (31985, Life Technologies). The mixture was incubated at room temperature for 5 min and then added to Optimem containing transfection reagent Lipofectamine (11668, Invitrogen) and incubated for 20 minutes. Mixture was then added dropwise to HEK 293T cells. The next day the medium was replaced with fresh culture medium and retrovirus was harvested @ 24 and 48 hrs. Generation of EGFR mutant stable cell lines: BaF3 cells (1.5E5 cells) were infected with 1 ml of viral supernatant supplemented with 8 μg/ml polybrene by centrifuging for 30 min at 1000 rpm. Cells were placed in a 37° C. incubator overnight. Cells were then spun for 5 minutes to pellet the cells. Supernatant was removed and cells re-infected a fresh 1 ml of viral supernatant supplemented with 8 μg/ml polybrene by centrifuging for 30 min at 1000 rpm. Cells were placed in 37° C. incubator overnight. […] After 48 hours cells were selected for retroviral infection in 10 μg/ml Blasticidin for one week. Blasticidin resistant populations were washed twice in phosphate buffered saline before plating in media lacking IL-3 to select for IL-3 independent growth.
as §1, with “fresh 1 m1 of viral” for “fresh 1 ml of viral”

HER2 WT = target: T4, HER2 WT (Homo sapiens, UniProt P04626); assay: Assay for cell proliferation (CellTiterGlo), Activity for Inhibiting HER2; type: cell-based
T4 construct: endogenous in cells; host or cells: BT474
T4 sequence (P04626 23-1255): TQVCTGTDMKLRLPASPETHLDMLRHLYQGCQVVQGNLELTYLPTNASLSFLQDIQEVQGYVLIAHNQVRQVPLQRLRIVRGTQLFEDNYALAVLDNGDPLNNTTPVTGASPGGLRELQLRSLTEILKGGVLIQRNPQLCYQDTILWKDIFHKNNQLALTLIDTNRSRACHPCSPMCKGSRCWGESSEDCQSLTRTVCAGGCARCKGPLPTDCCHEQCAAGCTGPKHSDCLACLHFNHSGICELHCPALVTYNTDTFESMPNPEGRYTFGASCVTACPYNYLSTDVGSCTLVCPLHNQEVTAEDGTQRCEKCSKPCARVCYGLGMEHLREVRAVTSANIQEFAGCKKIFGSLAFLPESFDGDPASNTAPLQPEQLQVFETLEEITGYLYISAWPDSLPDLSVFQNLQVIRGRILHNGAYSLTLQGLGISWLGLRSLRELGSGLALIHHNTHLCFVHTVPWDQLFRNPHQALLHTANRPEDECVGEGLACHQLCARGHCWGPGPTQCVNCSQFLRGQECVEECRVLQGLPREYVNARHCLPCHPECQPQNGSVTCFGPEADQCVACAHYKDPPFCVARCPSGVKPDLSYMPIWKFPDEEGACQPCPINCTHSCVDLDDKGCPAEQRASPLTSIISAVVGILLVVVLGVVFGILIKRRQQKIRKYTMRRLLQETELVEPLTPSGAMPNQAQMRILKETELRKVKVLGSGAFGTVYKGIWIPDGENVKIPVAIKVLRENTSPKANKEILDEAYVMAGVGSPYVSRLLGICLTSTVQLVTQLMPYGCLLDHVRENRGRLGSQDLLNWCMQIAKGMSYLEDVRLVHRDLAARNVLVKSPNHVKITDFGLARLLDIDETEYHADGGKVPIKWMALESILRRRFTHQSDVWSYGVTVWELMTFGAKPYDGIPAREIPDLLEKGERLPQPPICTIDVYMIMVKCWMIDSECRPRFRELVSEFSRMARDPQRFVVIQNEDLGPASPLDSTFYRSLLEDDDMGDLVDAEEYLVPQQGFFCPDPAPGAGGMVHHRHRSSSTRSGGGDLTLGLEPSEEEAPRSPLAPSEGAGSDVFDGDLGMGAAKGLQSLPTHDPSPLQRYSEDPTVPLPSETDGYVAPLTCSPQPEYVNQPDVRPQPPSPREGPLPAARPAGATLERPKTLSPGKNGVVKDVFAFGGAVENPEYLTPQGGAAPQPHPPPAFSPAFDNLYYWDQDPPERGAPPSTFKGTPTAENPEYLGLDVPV

HER2 YVMA = target: T5, HER2 YVMA (Homo sapiens, UniProt P04626, INS775YVMA); assay: Assay for cell proliferation (BaF3 transformants, CellTiterGlo), Activity for Inhibiting HER2; type: cell-based; settings: potency code, 3 days drug
T5 construct: expressed in transfected cells; host or cells: BaF3 (murine pro-B) transformants

EGFR NPH = target: T6, EGFR NPH (Homo sapiens, UniProt P00533, INS773NPH); assay: Assay for cell proliferation (BaF3 transformants, CellTiterGlo), Activity for Inhibiting EGFR; type: cell-based; settings: potency code, 3 days drug
T6 construct: expressed in transfected cells; host or cells: BaF3 (murine pro-B), retroviral pMXs-IRES-Blasticidin, selected for IL-3 independence
T6 sequence (P00533 with tags, fused parts or gaps INS773NPH): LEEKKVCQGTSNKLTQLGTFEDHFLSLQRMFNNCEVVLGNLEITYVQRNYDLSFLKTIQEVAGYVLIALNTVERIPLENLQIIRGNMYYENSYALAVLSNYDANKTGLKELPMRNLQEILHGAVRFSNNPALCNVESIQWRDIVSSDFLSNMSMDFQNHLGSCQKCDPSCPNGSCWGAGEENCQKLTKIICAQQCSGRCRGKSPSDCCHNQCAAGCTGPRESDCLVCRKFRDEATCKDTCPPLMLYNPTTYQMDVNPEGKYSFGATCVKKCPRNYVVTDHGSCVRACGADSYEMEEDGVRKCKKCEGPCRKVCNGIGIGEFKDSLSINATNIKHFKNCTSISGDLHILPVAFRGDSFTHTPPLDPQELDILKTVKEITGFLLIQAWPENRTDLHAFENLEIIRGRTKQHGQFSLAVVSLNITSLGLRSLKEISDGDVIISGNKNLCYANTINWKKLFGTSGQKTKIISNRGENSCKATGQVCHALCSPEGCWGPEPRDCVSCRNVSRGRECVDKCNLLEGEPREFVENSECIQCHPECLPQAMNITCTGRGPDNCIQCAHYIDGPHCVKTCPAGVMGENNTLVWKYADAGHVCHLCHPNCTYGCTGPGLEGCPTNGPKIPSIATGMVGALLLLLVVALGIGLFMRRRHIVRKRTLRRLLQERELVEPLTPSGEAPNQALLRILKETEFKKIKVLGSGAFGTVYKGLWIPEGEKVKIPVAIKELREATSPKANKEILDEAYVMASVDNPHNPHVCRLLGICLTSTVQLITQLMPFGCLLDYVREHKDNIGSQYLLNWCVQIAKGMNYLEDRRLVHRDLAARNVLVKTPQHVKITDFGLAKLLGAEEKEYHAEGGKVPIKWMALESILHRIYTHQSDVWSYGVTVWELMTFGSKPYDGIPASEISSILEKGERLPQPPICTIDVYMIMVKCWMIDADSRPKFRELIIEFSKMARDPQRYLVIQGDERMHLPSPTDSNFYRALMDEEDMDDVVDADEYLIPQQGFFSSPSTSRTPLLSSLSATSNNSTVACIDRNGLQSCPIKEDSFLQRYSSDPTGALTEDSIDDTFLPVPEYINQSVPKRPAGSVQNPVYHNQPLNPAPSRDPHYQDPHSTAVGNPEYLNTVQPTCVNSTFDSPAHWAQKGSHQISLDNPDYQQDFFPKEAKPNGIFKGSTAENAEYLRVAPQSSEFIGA
Procedure: as §1
as §1, with “fresh 1 m1 of viral” for “fresh 1 ml of viral”

EGFR SVD = target: T7, EGFR SVD (Homo sapiens, UniProt P00533, INS770SVD); assay: as above; type: cell-based; settings: potency code, 3 days drug
T7 construct: expressed in transfected cells; host or cells: BaF3 (murine pro-B), retroviral pMXs-IRES-Blasticidin, selected for IL-3 independence
Procedure: as §1
as §1, with “fresh 1 m1 of viral” for “fresh 1 ml of viral”

[3] = covalent dimers of covalently-activated EGFR variants, cells expressing EGFR-Vii and EGFR-A289V (FIG. 8)
[4] = phase 2 study, erlotinib in combination with radiation and temozolomide
[5] = sub-saturating concentrations, up to 72 hours
[6] = Table B (Example 2), potency code, 3 days drug, read-out: HER2 WT
[7] = Table B, potency code, 3 days drug, read-out: HER2 WT
[8] = 'about ... or less', read-out: IC50 value for inhibiting wild-type HER2

| SMILES | IC50 (EGFR WT; Table A (Example 2)) [nM] | IC50 (EGFR WT; Table A) [nM] | IC50 (HER2 S310F; Table B (Example 2)) [nM] | IC50 (HER2 S310F; Table B) [nM] | IC50 (EGFR V3 (EGFR-Viii); Table A (Example 2)) [nM] | IC50 (EGFR V3 (EGFR-Viii); Table A) [nM] | IC50 (HER2 WT; [6]) [nM] | IC50 (HER2 WT; [7]) [nM] | IC50 (HER2 WT; [8]) [nM] | other results |
| --- | --- | --- | --- | --- | --- | --- | --- | --- | --- | --- |
| C=CC(=O)Nc1ccc2ncnc(Nc3ccc(OCc4cccc(F)c4)c(Cl)c3)c2c1 [AST-1306] | – | – | – | – | – | – | – | – | – | Induced dimers [1, 3]: No |
| C=CC(=O)Nc1cccc(Nc2nc(Nc3ccc(N4CCN(C(C)=O)CC4)cc3OC)ncc2C(F)(F)F)c1 [CO-1686] | – | – | – | – | – | – | – | – | – | Induced dimers [1]: Yes |
| COc1cc2ncnc(Nc3ccc(F)c(Cl)c3)c2cc1NC(=O)/C=C/CN1CCCCC1 [Dacomitinib, dacomitinib] | – | – | – | – | – | – | – | – | – | Induced dimers [1, 3]: Yes |
| C#Cc1cccc(Nc2ncnc3cc(OCCOC)c(OCCOC)cc23)c1 [Erlotinib, erlotinib] | – | – | – | – | – | – | – | – | – | clinical benefit in GBM (GBM): failed to produce any benefit; median OS (mOS) (GBM; [4]): 8.6 months; median PFS (mPFS) (GBM; [4]): 2.8 months |
| COc1cc2ncnc(Nc3ccc(F)c(Cl)c3)c2cc1OCCCN1CCOCC1 [Gefitinib, gefinitinib] | – | – | – | – | – | – | – | – | – | clinical benefit in GBM (GBM): failed to produce any benefit |
| CCOc1cc2ncc(C#N)c(Nc3ccc(OCc4cccc(F)c4)c(Cl)c3)c2cc1NC(=O)/C=C/CN(C)C [HKI-357] | – | – | – | – | – | – | – | – | – | Induced dimers [1, 3]: No |
| CN(C)C/C=C/C(=O)Nc1cc2c(Nc3ccc(F)c(Cl)c3)ncnc2cc1C#CC1[C@H]2COC[C@@H]12 (stereo partly shown) [NT-113] | – | – | – | – | – | – | – | – | – | proliferation of cells expressing covalently-activated EGFR (paradoxical activation) [2, 5]: no evidence for increased cellular proliferation; formation of covalent EGFR dimers ([1]; cells expressing covalently-activated EGFR variants, non-reducing conditions): induces dimerization |
| CCOc1cc2ncc(C#N)c(Nc3ccc(OCc4ccccn4)c(Cl)c3)c2cc1NC(=O)/C=C/CN(C)C [Neratinib, neratinib] | – | – | – | – | – | – | – | – | – | proliferation of cells expressing covalently-activated EGFR (paradoxical activation) [2]: devoid of paradoxical activation |
| CCOc1cc2ncc(C#N)c(Nc3ccc(F)c(Cl)c3)c2cc1NC(=O)/C=C/CN(C)C [Pelitinib, pelitinib] | – | – | – | – | – | – | – | – | – | Induced dimers [1]: Yes |
| C=CC(=O)Nc1cccc(Oc2nc(Nc3ccc(N4CCN(C)CC4)cc3)ncc2Cl)c1 [WZ3146] | – | – | – | – | – | – | – | – | – | proliferation of cells expressing covalently-activated EGFR (paradoxical activation) [2, 5]: biphasic effect on proliferation; also recorded: paradoxical stimulation of proliferation; Induced dimers [1, 3]: Yes |
| C=CC(=O)Nc1cccc(Oc2nc(Nc3ccc(N4CCN(C)CC4)cc3OC)ncc2Cl)c1 [WZ4002] | – | – | – | – | – | – | – | – | – | proliferation of cells expressing covalently-activated EGFR (paradoxical activation) [2, 5]: biphasic effect on proliferation; also recorded: paradoxical stimulation of proliferation; Induced dimers [1]: Yes |
| C=CC(=O)Nc1cccc(Sc2nc(Nc3ccc(N4CCN(C)CC4)cc3)ncc2Cl)c1 [WZ8040] | – | – | – | – | – | – | – | – | – | proliferation of cells expressing covalently-activated EGFR (paradoxical activation) [2, 5]: biphasic effect on proliferation; also recorded: paradoxical stimulation of proliferation; Induced dimers [1, 3]: Yes |
| C=CC(=O)Nc1cc2c(Nc3ccc4c(cnn4Cc4cccc(F)c4)c3)ncnc2cc1N(C)CCN(C)C [compound 1] | 500 to 1000 | 500 to 1000 | 100 to 200 | 100 to 200 | 50 to 100 | 50 to 100 | 20 to 30 | 20 to 30 | – | – |
| C=CC(=O)Nc1cc2c(Nc3ccc4c(cnn4Cc4cccc(F)c4)c3)ncnc2cc1N(C)CCN1CCOCC1 [compound 2] | > 1000 | > 1000 | 100 to 200 | 100 to 200 | 30 to 50 | 30 to 50 | 20 to 30 | 20 to 30 | – | – |
| C=CC(=O)Nc1cc2c(Nc3ccc4c(cnn4Cc4cccc(F)c4)c3)ncnc2cc1N(C)CCCN1CCOCC1 [compound 4] | 500 to 1000 | 500 to 1000 | 100 to 200 | 100 to 200 | 30 to 50 | 30 to 50 | 10 to 20 | 10 to 20 | ≤ 20 | – |
| C=CC(=O)Nc1cc2c(Nc3ccc4c(cnn4Cc4cccc(F)c4)c3)ncnc2cc1NCCN1CCOCC1 [compound 5] | 200 to 300 | 200 to 300 | 100 to 200 | 100 to 200 | 100 to 200 | 100 to 200 | 5 to 10 | 5 to 10 | ≤ 10 | – |
| C=CC(=O)Nc1cc2c(Nc3ccc4c(cnn4Cc4cccc(F)c4)c3)ncnc2cc1OCCCN1CC2CC1CO2 (stereo not shown) [compound 6] | 100 to 200 | 100 to 200 | 10 to 20 | 10 to 20 | 30 to 50 | 30 to 50 | < 5 | < 5 | ≤ 6 | – |
| C=CC(=O)Nc1cc2c(Nc3ccc4c(cnn4Cc4cccc(F)c4)c3)ncnc2cc1N(C)CCCN1CC2CC1CO2 (stereo not shown) [compound 7] | 300 to 500 | 300 to 500 | 100 to 200 | 100 to 200 | 100 to 200 | 100 to 200 | 10 to 20 | 10 to 20 | ≤ 20 | – |
| C=CC(=O)Nc1cc2c(Nc3ccc4c(cnn4Cc4cccc(F)c4)c3)ncnc2cc1OCCN1CCCCC1 [compound 8] | 100 to 200 | 100 to 200 | 10 to 20 | 10 to 20 | 20 to 30 | 20 to 30 | 5 to 10 | 5 to 10 | ≤ 10 | IC50 (HER2 YVMA; Table B (Example 2)): 100 to 200 nM; IC50 (HER2 YVMA; Table B): 100 to 200 nM; IC50 (EGFR NPH; Table A (Example 2)): 30 to 50 nM; IC50 (EGFR NPH; Table A): 30 to 50 nM; IC50 (EGFR SVD; Table A (Example 2)): 30 to 50 nM; IC50 (EGFR SVD; Table A): 30 to 50 nM |
| C=CC(=O)Nc1cc2c(Nc3ccc4c(cnn4Cc4cccc(F)c4)c3)ncnc2cc1C#CC(C)(C)N1CCN(C)CC1 [compound 9] | 300 to 500 | 300 to 500 | 10 to 20 | 10 to 20 | 30 to 50 | 30 to 50 | 5 to 10 | 5 to 10 | ≤ 10 | IC50 (HER2 YVMA; Table B (Example 2)): 50 to 100 nM; IC50 (HER2 YVMA; Table B): 50 to 100 nM; IC50 (EGFR NPH; Table A (Example 2)): 30 to 50 nM; IC50 (EGFR NPH; Table A): 30 to 50 nM; IC50 (EGFR SVD; Table A (Example 2)): 30 to 50 nM; IC50 (EGFR SVD; Table A): 30 to 50 nM |
| C=CC(=O)Nc1cc2c(Nc3ccc4c(cnn4Cc4cccc(F)c4)c3)ncnc2cc1OCCN(C)C [compound 10] | 100 to 200 | 100 to 200 | 20 to 30 | 20 to 30 | 20 to 30 | 20 to 30 | < 5 | < 5 | ≤ 6 | IC50 (HER2 YVMA; Table B (Example 2)): 50 to 100 nM; IC50 (HER2 YVMA; Table B): 50 to 100 nM; IC50 (EGFR NPH; Table A (Example 2)): 30 to 50 nM; IC50 (EGFR NPH; Table A): 30 to 50 nM; IC50 (EGFR SVD; Table A (Example 2)): 30 to 50 nM; IC50 (EGFR SVD; Table A): 30 to 50 nM |
